US5773421A, “Antifungal fusacandins” (Abbott Laboratories, priority 1995, dated 1998)
≈ marks a conversion by molar mass, not a printed value. Like-named read-outs stand apart in the source and are kept apart here. Each block holds one compound with its values, some of them ahead of it.

Tests used:
[1] = MIC by broth dilution assay; type: cell-based; conditions: 144 h, Table 6d, no sorbitol, 2 ×10^5 organisms/mL
Procedure: Minimal inhibitory concentrations (MICs) were determined by a broth dilution assay described by Frost, D., Brandt, K., Cugier, D., and Goldman, R. in J. Antibiotics 48: 306-310 (1995) which is incorporated herein by reference. The final concentration of cells was 2 ×10^5 organisms/mL.

[2] = target: T1, (1,3)-β-Glucan Synthase (Candida albicans, UniProt O13428); assay: In vitro inhibition of (1,3)-β-glucan synthase activity, microsomal enzyme preparation; type: biochemical; conditions: C. albicans CCH 442 microsomal enzyme
T1 construct: microsomal enzyme preparation C. albicans CCH 442; endogenous in cells; host or cells: Candida albicans CCH 442, microsomes
Procedure: The assay was conducted in a final volume of 100 μL of 2.0 mM UDP-[^14 C]-Glc (0.625 mCi/mmol), 1 mM EDTA, 8% (v/v) glycerol, 20 μM GTPgS, 0.5% Brij-35(v/v) or 0.8% BSA, 80 mM Tris/HCl, pH 7.75, and microsomal enzyme preparation C. albicans CCH 442 (100 μg of protein). A detailed description of this assay is described by Frost, D., Brandt, K. Capobioanco, and Goldman, R., Microbiology 140: 2239-2246 (1994) which is incorporated herein by reference.

[3] = tested on: Nocardia asteroides ATTC 9970; assay: MIC by agar dilution method; type: cell-based; conditions: Nocardia asteroides, ATTC9970, 20 h
[4] = tested on: Streptococcus pyrogenes EES61; assay: MIC by agar dilution method; type: cell-based; conditions: Streptococcus, EES61, 20 h
[5] = tested on: Streptococcus bovis A-5169; assay: MIC by agar dilution method; type: cell-based; conditions: Streptococcus equinus, A5169, 20 h
[6] = tested on: Staphylococcus aureus ATTC 6538p; assay: MIC by agar dilution method; type: cell-based; conditions: Staphylococcus aureus, ATTC6538P, 20 h
[7] = tested on: Candida albicans CCH 442; assay: MIC by agar dilution method; type: cell-based
Procedure: (§1) Minimal inhibitory concentrations (MICs) were determined by an agar dilution method. The test compounds were serially diluted in MeOH and 0.2 mL portions were mixed with 20 mL of molten, cooled Sabouraud dextrose agar (Difco). Yeast cell inoculum was prepared by growing cultures on Sabouraud dextrose agar for 18 hours at 32° C. and suspending the cells in phosphate buffered saline. Filamentous fungi were grown under the same conditions for 4 days to obtain spores. The inoculum level for all cultures was adjusted to 10^4 cells using a Petroff-Hauser cell counter. The glutarimide antifungal compounds cycloheximide or amphotericin B were used as a control. Inoculated test plates were incubated at 32° C. and examined after 20 hours.

[8] = tested on: Candida albicans ATCC 997; assay: MIC by agar dilution method; type: cell-based; conditions: Candida albicans, ATCC997, 20 h
Procedure: as §1

[9] = tested on: Candida tropicalis NRRL-Y-1; assay: MIC by agar dilution method; type: cell-based; conditions: Candida tropicalis, NRRLY1, 20 h
Procedure: as §1

[10] = tested on: Candida albicans ATCC 623; assay: MIC by agar dilution method; type: cell-based; conditions: Candida albicans, ATCC623, 20 h
Procedure: as §1

[11] = tested on: Saccharomyces cereviseae GS1-36; assay: MIC by agar dilution method; type: cell-based; conditions: Saccharomyces, GS136, 20 h
Procedure: as §1

[12] = tested on: Torulopsis glabrata ATCC 155; assay: MIC by agar dilution method; type: cell-based; conditions: Nakaseomyces glabratus, ATCC155, 20 h
Procedure: as §1

[13] = tested on: Aspergillus niger ATCC 164; assay: MIC by agar dilution method; type: cell-based; conditions: Aspergillus niger, ATCC164, 20 h
Procedure: as §1

[14] = tested on: Candida albicans ATCC 62376; assay: MIC by agar dilution method; type: cell-based; conditions: ATCC62376; Table 6c; V Candida albicans ATCC 62376; agar dilution; read-out: MIC V
Procedure: as §1

[15] = tested on: Candida albicans 579a; assay: MIC by agar dilution method; type: cell-based; conditions: Table 6c; II Candida albicans 579a; agar dilution; read-out: MIC II
Procedure: as §1

[16] = tested on: Candida albicans ATCC 38247; assay: MIC by agar dilution method; type: cell-based; conditions: ATCC38247; Table 6c; IV Candida albicans ATCC 38247; agar dilution; read-out: MIC IV
Procedure: as §1

[17] = tested on: Candida albicans ATCC 10231; assay: MIC by agar dilution method; type: cell-based; conditions: ATCC10231; Table 6c; I Candida albicans ATCC 10231; agar dilution; read-out: MIC I
Procedure: as §1

[18] = CCH442, Table 6c, 3rd value column (head printed II), III Candida albicans CCH 442, agar dilution, read-out: MIC II

T1 sequence (O13428 1-1897): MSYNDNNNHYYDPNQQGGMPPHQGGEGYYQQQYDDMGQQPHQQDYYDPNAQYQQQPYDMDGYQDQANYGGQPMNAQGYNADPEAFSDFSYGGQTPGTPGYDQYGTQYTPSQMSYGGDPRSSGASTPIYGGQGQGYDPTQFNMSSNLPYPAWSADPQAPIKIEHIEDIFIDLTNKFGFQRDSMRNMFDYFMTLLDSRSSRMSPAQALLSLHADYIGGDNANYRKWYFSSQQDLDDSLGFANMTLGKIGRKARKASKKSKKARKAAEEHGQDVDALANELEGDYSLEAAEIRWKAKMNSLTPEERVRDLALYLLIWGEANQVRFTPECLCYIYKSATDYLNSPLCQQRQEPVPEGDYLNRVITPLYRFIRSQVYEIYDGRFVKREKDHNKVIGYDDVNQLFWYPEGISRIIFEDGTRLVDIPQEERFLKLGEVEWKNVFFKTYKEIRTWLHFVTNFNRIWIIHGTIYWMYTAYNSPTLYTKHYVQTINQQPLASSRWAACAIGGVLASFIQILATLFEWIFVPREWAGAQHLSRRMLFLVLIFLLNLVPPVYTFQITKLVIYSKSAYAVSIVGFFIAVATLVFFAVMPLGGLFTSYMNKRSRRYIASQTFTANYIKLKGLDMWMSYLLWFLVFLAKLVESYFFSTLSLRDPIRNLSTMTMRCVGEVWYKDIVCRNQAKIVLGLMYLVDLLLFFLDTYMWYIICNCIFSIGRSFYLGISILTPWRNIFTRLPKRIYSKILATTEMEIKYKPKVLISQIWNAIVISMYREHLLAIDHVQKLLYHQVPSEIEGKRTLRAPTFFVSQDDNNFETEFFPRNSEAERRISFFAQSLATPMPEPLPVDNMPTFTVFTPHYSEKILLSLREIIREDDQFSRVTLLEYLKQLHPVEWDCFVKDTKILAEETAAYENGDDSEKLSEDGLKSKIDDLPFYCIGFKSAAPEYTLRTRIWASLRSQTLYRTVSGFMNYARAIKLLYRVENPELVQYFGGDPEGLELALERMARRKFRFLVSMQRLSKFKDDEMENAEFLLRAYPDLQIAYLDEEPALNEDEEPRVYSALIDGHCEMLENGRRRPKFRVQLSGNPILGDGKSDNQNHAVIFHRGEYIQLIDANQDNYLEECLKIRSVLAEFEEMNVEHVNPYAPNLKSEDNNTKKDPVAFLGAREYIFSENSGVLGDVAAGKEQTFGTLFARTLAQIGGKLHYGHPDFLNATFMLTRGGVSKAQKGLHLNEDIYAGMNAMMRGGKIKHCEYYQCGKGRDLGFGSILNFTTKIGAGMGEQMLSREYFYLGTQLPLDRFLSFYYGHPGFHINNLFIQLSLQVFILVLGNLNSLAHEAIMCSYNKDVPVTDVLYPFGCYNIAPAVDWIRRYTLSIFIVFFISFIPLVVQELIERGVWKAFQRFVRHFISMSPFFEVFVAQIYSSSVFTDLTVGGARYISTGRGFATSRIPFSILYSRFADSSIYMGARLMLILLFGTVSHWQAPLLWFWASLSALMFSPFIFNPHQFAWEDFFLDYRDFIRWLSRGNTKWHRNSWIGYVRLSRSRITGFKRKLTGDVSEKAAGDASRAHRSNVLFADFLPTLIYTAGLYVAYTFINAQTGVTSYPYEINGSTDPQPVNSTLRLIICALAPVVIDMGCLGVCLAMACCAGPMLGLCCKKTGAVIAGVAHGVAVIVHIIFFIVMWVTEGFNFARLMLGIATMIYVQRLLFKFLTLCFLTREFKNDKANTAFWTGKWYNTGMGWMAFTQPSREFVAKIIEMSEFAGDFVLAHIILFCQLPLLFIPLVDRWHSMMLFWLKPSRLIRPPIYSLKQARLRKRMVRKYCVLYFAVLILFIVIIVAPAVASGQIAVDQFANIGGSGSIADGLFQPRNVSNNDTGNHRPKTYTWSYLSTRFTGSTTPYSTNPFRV

Structure (SMILES): CC/C=C/C/C=C\C=C\C(=O)OC[C@H]1O[C@@H](O[C@H]2[C@H](OC(=O)/C=C/C=C/CC(O)/C=C/C=C/CCCCC)[C@@H](O)[C@H](c3c(O)cc(O)cc3CO)O[C@@H]2CO)[C@H](O[C@@H]2O[C@H](CO)[C@H](O)[C@H](O)[C@H]2O)[C@@H](O)[C@H]1O (stereo partly drawn) [Example 9, fusacandin C]
MIC [1]: 1.95 µg/mL (≈ 1.91 µM)
IC50 ([2]; 0.5% Brij-35, read-out: IC50 With Brij-35 (converted)): 35 µM
IC50 ([2]; 0.8% BSA, read-out: IC50 With BSA (converted)): 194 µM

Structure (SMILES): C[C@@H]1C[C@@H]([C@H](O)CC2CC(=O)NC(=O)C2)C(=O)[C@@H](C)C1 [Cycloheximide, cycloheximide, reference compound]
MIC [3]: 1.6 µg/mL (≈ 5.69 µM)
MIC [4]: 50 µg/mL (≈ 178 µM)
MIC [5]: 25 µg/mL (≈ 88.9 µM)
MIC [6]: 0.8 µg/mL (≈ 2.84 µM)
MIC ([7]; Candida albicans, CCH442, 20 h): > 100 µg/mL
MIC [8]: > 100 µg/mL
MIC [9]: 0.4 µg/mL (≈ 1.42 µM)
MIC [10]: > 100 µg/mL
MIC [11]: < 0.05 µg/mL
MIC [12]: 0.4 µg/mL (≈ 1.42 µM)
MIC [13]: 1.6 µg/mL (≈ 5.69 µM)

MIC [14]: 6.25 µg/mL (≈ 6.09 µM)
MIC [7, 18]: 3.12 µg/mL (≈ 3.04 µM)
MIC [15]: 3.12 µg/mL (≈ 3.04 µM)
MIC [16]: 1.56 µg/mL (≈ 1.52 µM)
MIC [17]: 3.12 µg/mL (≈ 3.04 µM)
Structure (SMILES): CCCCC/C=C/C=C/[C@@H](O)C/C=C/C=C/C(=O)O[C@@H]1[C@@H](O)[C@H](c2c(O)cc(O)cc2CO)O[C@H](CO)[C@H]1O[C@@H]1O[C@H](COC(=O)c2cccc3ccccc23)[C@H](O)[C@H](O)[C@H]1O[C@@H]1O[C@H](CO)[C@H](O)[C@H](O)[C@H]1O [Example 20]

MIC [14]: 1.56 µg/mL (≈ 1.35 µM)
MIC [7, 18]: 3.12 µg/mL (≈ 2.69 µM)
MIC [15]: 1.56 µg/mL (≈ 1.35 µM)
MIC [16]: 3.12 µg/mL (≈ 2.69 µM)
MIC [17]: 1.56 µg/mL (≈ 1.35 µM)
Structure (SMILES): CCCCC/C=C/C=C/[C@@H](O)C/C=C/C=C/C(=O)O[C@@H]1[C@@H](O)[C@H](c2c(O)cc(O)cc2CO)O[C@H](CO)[C@H]1O[C@@H]1O[C@H](COC(=O)c2ccc(-c3ccc(OCc4ccccc4)cc3)cc2)[C@H](O)[C@H](O)[C@H]1O[C@@H]1O[C@H](CO)[C@H](O)[C@H](O)[C@H]1O [Example 37]
